Measurements taken from PubChem BioAssay AID248 (DTP/NCI, 2004).
Where “and” joins values, the source holds several entries; their conditions need not be identical. Equal values may be shown once. Toxic doses and inconclusive results are not listed.

System: L1210 leukemia ip in BDF1 mice, survival T/C
Assay: NCI In Vivo Anticancer Drug Screen. Data for tumor model L1210 Leukemia (intraperitoneal) in B6D2F1 (BDF1) mice
Details: endpoint: mean survival time, higher = longer survival
Procedure, shortened: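 Antitumor effect is assessed in tumor-bearing animals. Survival in the compound arm is compared with a vehicle-dosed control arm and expressed as their quotient.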

[1] = dose: 100.0 mg/kg/injection, schedule: Q04DX003 (ip), vehicle: Klucel (hydroxypropylcellulose) (HPC)
[2] = dose: 200.0 mg/kg/injection, schedule: Q04DX003 (ip), vehicle: Klucel (hydroxypropylcellulose) (HPC)
[3] = dose: 400.0 mg/kg/injection, schedule: Q04DX003 (ip), vehicle: Klucel (hydroxypropylcellulose) (HPC)
[4] = dose: 100.0 mg/kg/injection, schedule: Q01DX001 (ip), vehicle: Klucel (hydroxypropylcellulose) (HPC)
[5] = dose: 200.0 mg/kg/injection, schedule: Q01DX001 (ip), vehicle: Klucel (hydroxypropylcellulose) (HPC)
[6] = dose: 400.0 mg/kg/injection, schedule: Q01DX001 (ip), vehicle: Klucel (hydroxypropylcellulose) (HPC)
[7] = dose: 100.0 mg/kg/injection, schedule: Q04DX003 (ip), vehicle: saline
[8] = dose: 200.0 mg/kg/injection, schedule: Q04DX003 (ip), vehicle: saline
[9] = dose: 400.0 mg/kg/injection, schedule: Q04DX003 (ip), vehicle: saline

For N#Cc1cnc(SCc2ccccc2)nc1N, the T/C (dose: 100.0 mg/kg/injection, schedule: Q01DX001 (ip), vehicle: gum acacia) was 95 % of control, the T/C (dose: 100.0 mg/kg/injection, schedule: Q01DX009 (ip), vehicle: gum acacia) was 95 % of control and the T/C (dose: 200.0 mg/kg/injection, schedule: Q01DX001 (ip), vehicle: gum acacia) was 95 % of control. For the same molecule, the T/C (dose: 200.0 mg/kg/injection, schedule: Q01DX009 (ip), vehicle: gum acacia) was 98 % of control, the T/C (dose: 400.0 mg/kg/injection, schedule: Q01DX001 (ip), vehicle: gum acacia) was 98 % of control and the T/C (dose: 400.0 mg/kg/injection, schedule: Q01DX009 (ip), vehicle: gum acacia) was 107 % of control.
CC(C)CC(N)C(=O)NC1(C(=O)O)C2CC3CC(C2)CC1C3 (centres undefined) was tested, and the T/C (dose: 17.5 mg/kg/injection, schedule: Q01DX009 (ip), vehicle: Klucel (hydroxypropylcellulose) (HPC)) was 101 % of control, the T/C (dose: 35.0 mg/kg/injection, schedule: Q01DX009 (ip), vehicle: Klucel (hydroxypropylcellulose) (HPC)) was 96 % of control and the T/C (dose: 70.0 mg/kg/injection, schedule: Q01DX009 (ip), vehicle: Klucel (hydroxypropylcellulose) (HPC)) was 97 % of control. The T/C (dose: 75.0 mg/kg/injection, schedule: Q01DX009 (ip), vehicle: Klucel (hydroxypropylcellulose) (HPC)) was 103 % of control, the T/C (dose: 150.0 mg/kg/injection, schedule: Q01DX009 (ip), vehicle: Klucel (hydroxypropylcellulose) (HPC)) was 97 % of control and the T/C (dose: 300.0 mg/kg/injection, schedule: Q01DX009 (ip), vehicle: Klucel (hydroxypropylcellulose) (HPC)) was 92 % of control.
In the case of COc1ccc(OC)c(C2C(C#N)C(C=O)NC(C=O)C2C#N)c1 (centres undefined), the T/C (dose: 100.0 mg/kg/injection, schedule: Q04DX003 (ip), vehicle: other) is reported as 107 % of control, the T/C (dose: 200.0 mg/kg/injection, schedule: Q04DX003 (ip), vehicle: other) is reported as 109 % of control and the T/C (dose: 400.0 mg/kg/injection, schedule: Q04DX003 (ip), vehicle: other) is reported as 107 % of control.
In the case of O=C(COc1ccc(Br)cc1)Nc1ccc(Cl)cc1, the T/C (dose: 100.0 mg/kg/injection, schedule: Q04DX002 (ip), vehicle: Klucel (hydroxypropylcellulose) (HPC)) is reported as 95 % of control, the T/C (dose: 200.0 mg/kg/injection, schedule: Q04DX002 (ip), vehicle: Klucel (hydroxypropylcellulose) (HPC)) is reported as 92 % of control and the T/C (dose: 400.0 mg/kg/injection, schedule: Q04DX002 (ip), vehicle: Klucel (hydroxypropylcellulose) (HPC)) is reported as 89 % of control.
In the case of CCOC(=O)c1cnc(C)nc1Nc1ccccc1I, the T/C [1] is reported as 106 % of control, the T/C [2] is reported as 97 % of control and the T/C [3] is reported as 101 % of control.
With CCOC(=O)c1cc(Cl)cc(Cl)c1N/N=[N+](\C)[O-] the T/C (dose: 50.0 mg/kg/injection, schedule: Q01DX009 (ip), vehicle: saline with Tween-80) was 117 % of control, the T/C (dose: 100.0 mg/kg/injection, schedule: Q01DX009 (ip), vehicle: saline with Tween-80) was 87 % of control and the T/C (dose: 200.0 mg/kg/injection, schedule: Q01DX009 (ip), vehicle: saline with Tween-80) was 93 % of control.
With C[C@]12C=CC(=O)C=C1CC[C@@H]1[C@@H]2[C@@H](O)C[C@@]2(C)[C@H]1CC[C@]2(O)C(=O)COC(=O)C1CCCC1 the T/C (dose: 89.0 mg/kg/injection, schedule: Q01DX Z (sc), vehicle: distilled water + alcohol) was 111 % of control, the T/C (dose: 89.0 mg/kg/injection, schedule: Q01DX Z (sc), vehicle: steriod suspending solution) was 104 % of control and the T/C (dose: 130.0 mg/kg/injection, schedule: Q01DX Z (sc), vehicle: steriod suspending solution) was 98 % of control. The T/C (dose: 133.0 mg/kg/injection, schedule: Q01DX Z (sc), vehicle: distilled water + alcohol) was 96 % of control, the T/C (dose: 200.0 mg/kg/injection, schedule: Q01DX Z (sc), vehicle: distilled water + alcohol) was 96 % of control and the T/C (dose: 200.0 mg/kg/injection, schedule: Q01DX Z (sc), vehicle: steriod suspending solution) was 112 % of control. For the same molecule, the T/C (dose: 300.0 mg/kg/injection, schedule: Q01DX Z (sc), vehicle: distilled water + alcohol) was 108 % of control and the T/C (dose: 300.0 mg/kg/injection, schedule: Q01DX Z (sc), vehicle: steriod suspending solution) was 93 % of control.
In the case of O=P(OCC(Br)CBr)(OCC(Br)CBr)OCC(Br)CBr (centres undefined), the T/C (dose: 50.0 mg/kg/injection, schedule: Q04DX003 (ip), vehicle: Klucel (hydroxypropylcellulose) (HPC)) is reported as 107 % of control, the T/C [1] is reported as 98 % of control and the T/C [2] is reported as 106 % of control. For the same molecule, the T/C [3] was 106 % of control.
With O=C(COc1c(Cl)cc(Cl)cc1Cl)Nc1cccnc1 the T/C [4] was 100 % of control, the T/C [5] was 100 % of control and the T/C [6] was 107 % of control.
For O=P(CCCCl)(OCCCCl)OCCCCl, the T/C [7] was 104 % of control, the T/C [8] was 114 % of control and the T/C [9] was 96 % of control.
C[N+](C)(C)CCOS(=O)(=O)[O-] was tested, and the T/C (dose: 50.0 mg/kg/injection, schedule: Q04DX003 (ip), vehicle: saline) was 99 % of control, the T/C [7] was 97 % of control and 103 % of control and the T/C [8] was 95 % of control and 105 % of control. For the same molecule, the T/C [9] was 98 % of control.
For CC12C(=O)OC3CCC1CC32 (centres undefined), the T/C (dose: 75.0 mg/kg/injection, schedule: Q04DX003 (ip), vehicle: saline) was 97 % of control, the T/C (dose: 150.0 mg/kg/injection, schedule: Q04DX003 (ip), vehicle: saline) was 94 % of control and the T/C (dose: 300.0 mg/kg/injection, schedule: Q04DX003 (ip), vehicle: saline) was 94 % of control.
With CCCCCCCCCCP(=S)(CCCC)CCCC the T/C [1] was 98 % of control, the T/C [2] was 101 % of control and the T/C [3] was 104 % of control.
For Cc1ccc(S(=O)(=O)OCCN(CCOS(=O)(=O)c2ccc(C)cc2)c2ccc(F)cc2)cc1, the T/C (dose: 1.9 mg/kg/injection, schedule: Q01DX009 (ip), vehicle: saline) was 122 % of control, the T/C (dose: 4.4 mg/kg/injection, schedule: Q01DX009 (ip), vehicle: saline) was 122 % of control and the T/C (dose: 6.5 mg/kg/injection, schedule: Q01DX009 (ip), vehicle: saline) was 102 % of control. For the same molecule, the T/C (dose: 9.6 mg/kg/injection, schedule: Q01DX009 (ip), vehicle: saline) was 124 % of control, the T/C (dose: 10.0 mg/kg/injection, schedule: Q01DX009 (ip), vehicle: saline) was 118 % of control and the T/C (dose: 16.0 mg/kg/injection, schedule: Q01DX009 (ip), vehicle: saline) was 113 % of control. For the same molecule, the T/C (dose: 22.0 mg/kg/injection, schedule: Q01DX009 (ip), vehicle: saline) was 166 % of control, the T/C (dose: 23.0 mg/kg/injection, schedule: Q01DX009 (ip), vehicle: saline) was 113 % of control and the T/C (dose: 24.0 mg/kg/injection, schedule: Q01DX009 (ip), vehicle: saline) was 152 % of control. The T/C (dose: 35.0 mg/kg/injection, schedule: Q01DX009 (ip), vehicle: saline) was 121 % of control, the T/C (dose: 50.0 mg/kg/injection, schedule: Q01DX001 (ip), vehicle: saline) was 97 % of control and the T/C (dose: 50.0 mg/kg/injection, schedule: Q01DX009 (ip), vehicle: saline) was 95 % of control. The T/C (dose: 53.0 mg/kg/injection, schedule: Q01DX009 (ip), vehicle: other) was 110 % of control, the T/C (dose: 75.0 mg/kg/injection, schedule: Q01DX009 (ip), vehicle: saline) was 88 % of control and the T/C (dose: 79.0 mg/kg/injection, schedule: Q01DX009 (ip), vehicle: other) was 98 % of control and 119 % of control. The T/C (dose: 100.0 mg/kg/injection, schedule: Q01DX001 (ip), vehicle: saline) was 100 % of control, the T/C (dose: 118.0 mg/kg/injection, schedule: Q01DX009 (ip), vehicle: other) was 104 % of control and the T/C (dose: 150.0 mg/kg/injection, schedule: Q01DX009 (ip), vehicle: saline) was 123 % of control. The T/C (dose: 200.0 mg/kg/injection, schedule: Q01DX001 (ip), vehicle: saline) was 105 % of control and the T/C (dose: 400.0 mg/kg/injection, schedule: Q01DX001 (ip), vehicle: saline) was 115 % of control.
CCCCCNc1ccnc(=O)[nH]1 was tested, and the T/C (dose: 50.0 mg/kg/injection, schedule: Q01DX001 (ip), vehicle: Klucel (hydroxypropylcellulose) (HPC)) was 99 % of control, the T/C [4] was 94 % of control and the T/C [5] was 96 % of control.
In the case of ClCCOCCOc1ccccc1, the T/C (dose: 100.0 mg/kg/injection, schedule: Q04DX003 (ip), vehicle: saline with Tween-80) is reported as 96 % of control, the T/C (dose: 200.0 mg/kg/injection, schedule: Q04DX003 (ip), vehicle: saline with Tween-80) is reported as 100 % of control and the T/C (dose: 400.0 mg/kg/injection, schedule: Q04DX003 (ip), vehicle: saline with Tween-80) is reported as 101 % of control.
For CC(=O)Nc1ccc(/C=C/C(=O)c2ccc(C)cc2)cc1, the T/C [4] was 101 % of control, the T/C [1] was 104 % of control and the T/C [5] was 100 % of control. For the same molecule, the T/C [2] was 103 % of control, the T/C [6] was 103 % of control and the T/C [3] was 94 % of control.
